{"source": "patent US20200181104A1", "about": "“SSAO INHIBITORS AND USES THEREOF” (METACRINE, INC., priority 2018, published 2020)", "note": "pIC50: −log10 of the molar value. Where a name gives a salt, the structure may show the parent alone.", "data": [{"target": "T1, Recombinant Human SSAO/VAP-1/AOC3 (Homo sapiens, UniProt Q16853)", "T1 construct": "purchased R&D systems 3957-AO", "T1 sequence (Q16853 1-763)": "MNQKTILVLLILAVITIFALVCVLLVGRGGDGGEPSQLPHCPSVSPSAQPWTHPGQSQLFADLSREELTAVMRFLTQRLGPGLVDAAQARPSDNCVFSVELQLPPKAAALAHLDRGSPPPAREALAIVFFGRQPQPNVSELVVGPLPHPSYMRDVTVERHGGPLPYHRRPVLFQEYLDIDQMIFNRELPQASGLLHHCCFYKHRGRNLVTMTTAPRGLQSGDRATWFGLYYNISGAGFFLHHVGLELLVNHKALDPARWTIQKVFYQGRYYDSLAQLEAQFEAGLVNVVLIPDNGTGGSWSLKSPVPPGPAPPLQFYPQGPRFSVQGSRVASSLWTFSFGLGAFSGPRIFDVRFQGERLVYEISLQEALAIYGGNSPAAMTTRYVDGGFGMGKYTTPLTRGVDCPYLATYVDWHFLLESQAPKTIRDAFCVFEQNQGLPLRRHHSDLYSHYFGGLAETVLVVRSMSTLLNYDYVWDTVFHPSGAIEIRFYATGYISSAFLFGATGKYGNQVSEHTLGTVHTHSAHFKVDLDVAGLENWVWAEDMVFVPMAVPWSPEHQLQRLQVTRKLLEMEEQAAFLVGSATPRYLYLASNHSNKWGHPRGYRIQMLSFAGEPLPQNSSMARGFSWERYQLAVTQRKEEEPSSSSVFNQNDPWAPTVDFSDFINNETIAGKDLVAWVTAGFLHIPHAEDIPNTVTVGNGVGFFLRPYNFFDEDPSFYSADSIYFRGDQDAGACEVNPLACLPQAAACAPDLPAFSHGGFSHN", "test": "Human Semicarbazide-Sensitive Amine Oxidase (SSAO) Assay", "format": "biochemical", "settings": "recombinant enzyme, 30 minutes preincubation at 37° C., benzylamine substrate, Amplex Ultra Red/HRP fluorescence", "how_it_was_run": "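Recombinant human SSAO/VAP-1 (2.5 μg/ml working stock in 50 mM HEPES) preincubated with compound 30 min at 37 °C over a 6-10 point CRC. Benzylamine substrate starts the reaction. H2O2 read kinetically over 30-120 min via Amplex Ultra Red/HRP fluorescence (ex 544/em 590 nm) to derive IC50.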", "values": [{"smiles": "CC1(C)CC(NC(=O)C23CC(c4ccc(OC/C(=C/F)CN)cc4)(C2)C3)CCO1", "note": "(stereo not shown) [Compound 3.01, (E)-3-(4-((2-(aminomethyl)-3-fluoroallyl)oxy)phenyl)-N-(2,2-dimethyltetrahydro-2H-pyran-4-yl)bicyclo[1.1.1]pentane-1-carboxamide]", "pIC50": "≥ 8.00"}, {"smiles": "CC1(C)CC(NC(=O)C23CC(c4ccc(OC/C(=C/F)CN)cc4)(C2)C3)CC(C)(C)O1", "note": "[Compound 3.02, (E)-3-(4-((2-(aminomethyl)-3-fluoroallyl)oxy)phenyl)-N-(2,2,6,6-tetramethyltetrahydro-2H-pyran-4-yl)bicyclo[1.1.1]pentane-1-carboxamide]", "pIC50": "≥ 8.00"}, {"smiles": "COCCNC(=O)C12CC(c3ccc(OC/C(=C/F)CN)cc3)(C1)C2", "note": "[Compound 3.03, (E)-3-(4-((2-(aminomethyl)-3-fluoroallyl)oxy)phenyl)-N-(2-methoxyethyl)bicyclo[1.1.1] pentane-1-carboxamide]", "pIC50": "≥ 8.00"}, {"smiles": "CO[C@H]1C[C@@H](NC(=O)C23CC(c4ccc(OC/C(=C/F)CN)cc4)(C2)C3)C1", "note": "[Compound 3.05, 3-(4-(((E)-2-(aminomethyl)-3-fluoroallyl)oxy)phenyl)-N-((1r,3r)-3-methoxycyclobutyl)bicyclo [1.1.1]pentane-1-carboxamide]", "pIC50": "≥ 8.00"}, {"smiles": "CNC(=O)C12CCC(c3ccc(OC/C(=C/F)CN)cc3)(CC1)C2", "note": "[Compound 4, (E)-4-(4-((2-(Aminomethyl)-3-fluoroallyl)oxy)phenyl)-N-methylbicyclo[2.2.1]heptane-1-carboxamide Hydrochloride]", "pIC50": "≥ 8.00"}, {"smiles": "NC/C(=C\\F)COc1ccc(C23CCC(C(=O)NC4CCOCC4)(CC2)C3)cc1", "note": "[Compound 4.01, (E)-4-(4-((2-(Aminomethyl)-3-fluoroallyl)oxy)phenyl)-N-(tetrahydro-2H-pyran-4-yl)bicyclo[2.2.1]heptane-1-carboxamide Hydrochloride]", "pIC50": "≥ 8.00"}, {"smiles": "CNC(=O)C12CCCC(c3ccc(OC/C(=C/F)CN)cc3)(CC1)C2", "note": "(stereo not shown) [Compound 5, 5-(4-(((E)-2-(Aminomethyl)-3-fluoroallyl)oxy)phenyl)-N-methylbicyclo[3.2.1]octane-1-carboxamide Hydrochloride]", "pIC50": "≥ 8.00"}, {"smiles": "NC/C(=C\\F)COc1ccc(C23CCCC(C(=O)NC4CCOCC4)(CC2)C3)cc1", "note": "(stereo not shown) [Compound 5.01, 5-(4-(((E)-2-(Aminomethyl)-3-fluoroallyl)oxy)phenyl)-N-(tetrahydro-2H-pyran-4-yl)bicyclo[3.2.1]octane-1-carboxamide Hydrochloride]", "pIC50": "≥ 8.00"}, {"smiles": "CC(C)NC(=O)C12CC3CC(C1)CC(c1ccc(OC/C(=C/F)CN)cc1)(C3)C2", "note": "[Compound 6.04, (E)-3-(4-((2-(aminomethyl)-3-fluoroallyl)oxy)phenyl)-N-isopropyladamantane-1-carboxamide]", "pIC50": "≥ 8.00"}, {"smiles": "NC/C(=C\\F)COc1ccc(C23CCC(NC(=O)C4CCOCC4)(CC2)CC3)cc1", "note": "[Compound 7, (E)-N-(4-(4-((2-(Aminomethyl)-3-fluoroallyl)oxy)phenyl)bicyclo[2.2.2]octan-1-yl)tetrahydro-2H-pyran-4-carboxamide Hydrochloride]", "pIC50": "≥ 8.00"}, {"smiles": "NC/C(=C\\F)COc1ccc(C23CCC(NC(=O)CCO)(CC2)CC3)cc1", "note": "[Compound 7.01, (E)-N-(4-(4-((2-(aminomethyl)-3-fluoroallyl)oxy)phenyl)bicyclo [2.2.2]octan-1-yl)-3-hydroxypropanamide]", "pIC50": "≥ 8.00"}, {"smiles": "COCCC(=O)NC12CCC(c3ccc(OC/C(=C/F)CN)cc3)(CC1)CC2", "note": "[Compound 7.02, (E)-N-(4-(4-((2-(aminomethyl)-3-fluoroallyl)oxy)phenyl)bicyclo [2.2.2]octan-1-yl)-3-methoxypropanamide]", "pIC50": "≥ 8.00"}, {"smiles": "NC/C(=C\\F)COc1ccc(C23CCC(NS(=O)(=O)C4CC4)(CC2)CC3)cc1", "note": "[Compound 7.03, (E)-N-(4-(4-((2-(aminomethyl)-3-fluoroallyl)oxy)phenyl)bicyclo[2.2.2]octan-1-yl)cyclopropanesulfonamide]", "pIC50": "≥ 8.00"}]}]}
